Test results as given in PMC12784406, “IscS Kinetics in Native Mass Spectrometry Buffers Reveal Key Physiochemical Properties that Influence Enzyme Activity” (Journal of the American Society for Mass Spectrometry, 2025).

Target: T1, IscS (Escherichia coli, UniProt P0A6B7)
T1 construct: pET vector, expressed in E. coli BL21(DE3), HisTrap Ni-NTA and Sephacryl S-300 purified; homodimer
Assay: methylene blue sulfide detection assay, […] nm, anaerobic
Assay type: biochemical
Details: 50 mM Tris/150 mM NaCl, pH 8.5, 37 °C, 4 mM DTT; IscS 0.5 uM, without IscU; L-cysteine varied

T1 sequence (P0A6B7 whole entry): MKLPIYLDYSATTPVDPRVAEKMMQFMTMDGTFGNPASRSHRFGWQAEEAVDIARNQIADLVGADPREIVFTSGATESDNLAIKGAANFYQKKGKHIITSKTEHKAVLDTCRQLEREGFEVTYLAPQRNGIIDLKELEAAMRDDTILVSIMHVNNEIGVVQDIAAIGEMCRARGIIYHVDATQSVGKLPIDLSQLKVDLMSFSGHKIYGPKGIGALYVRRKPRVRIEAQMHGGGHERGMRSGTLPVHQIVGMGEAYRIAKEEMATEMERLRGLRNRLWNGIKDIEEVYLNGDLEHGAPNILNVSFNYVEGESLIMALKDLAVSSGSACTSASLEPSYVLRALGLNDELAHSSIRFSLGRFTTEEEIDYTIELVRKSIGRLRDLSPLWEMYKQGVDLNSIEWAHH

N[C@@H](CS)C(=O)O [L-cysteine]
methylene blue sulfide detection assay, 670 nm, anaerobic: Sulfide production was quantitated at different L-cysteine concentrations to determine the k cat values
